In paper PMC11770985 (Journal of proteome research, 2024):
Ends that are not written are not given here.

KLALKLALKALKAALKLAGAYGRKKRRQRRRAFSVDAETLWR-NH2 [KLAL-TAT-[barcode82]]
mean cytoplasmic abundance (Kasumi-1 cells): 15 millions of molecules/cell | mean cytoplasmic abundance (HEK293T cells): 31 millions of molecules/cell | mean cytoplasmic abundance (HUVEC cells): 0 millions of molecules/cell

RLALRLALRALRAALRLAGCYGRKKRRQRRR [RLAL-TAT-[barcode108]]
change of nuclear accumulation after 24 hours of cell exposure (Huh-7 cells): time-dependent increase in nuclear accumulation | mean nuclear abundance (Huh-7 cells): 196 millions of molecules/cell
